According to paper PMC9607104, “Switching the N-Capping Region from all-L to all-D Amino Acids in a VEGF Mimetic Helical Peptide” (Molecules, 2022):
Square brackets hold non-standard residues; d marks the D form. Peptide text beside a SMILES is read from it.

Assay: Peptide stability in 50% human serum (RP-HPLC time course)
Type: in vitro ADME
Conditions: 50% aqueous human serum, 37 °C, time points 0, 30 (35), 120 min, RP-HPLC peak area at 220 nm, triplicate
Procedure: D-amino acids are more resistant to protease degradation. In order to verify the effect of D-amino acid replacement on QK stability in serum, we performed a time-course analysis. Peptides were incubated with 50% diluted human serum and analyzed by RP-HPLC at three different times (0′, 35′ and 120′). The area of the chromatographic peak corresponding to the entire peptide was determined (Figure 6). Overall, peptide QK presents fairly good stability in 50% serum, as almost the 50% is still present after […] of incubation.
Figure 6 Analysis of peptide stability in 50% human serum. […] Data are reported as means of a triplicate experiment.
Briefly, 20 µL of peptide (10 mg/mL stock solution in H2O) were added to 200 µL of 50% aqueous solution of human serum (Sigma-Aldrich) (previously centrifuged at 10,000 rpm for 10 min at 4 °C) and the mixture was incubated at 37 °C. At each time point (0, 30, 120 min), an aliquot of 6 µL was diluted in a ten times volume of H2O and analyzed by RP-HPLC on an Atlantis C18-column (Waters, 5 µm, 4.6 mm × 150 mm) using a linear aqueous acetonitrile gradient containing TFA (0.1%, v/v). Initial condition 5% B, 5−5% B in 5 min, 5−40% B in 27 min, 40−100% B in 5 min, and flow rate 1 mL/min (B = acetonitrile 0.1% TFA). Peptides were detected by recording the absorbance at 220 nm and quantified by their peak areas relative to the initial peak areas (0 min). […]

effect of the N-terminal D-amino acids on stability in human serum (versus QK): unaffected
SMILES: CC[C@H](C)[C@H](NC(=O)CNC(=O)[C@H](CCCCN)NC(=O)[C@H](Cc1ccc(O)cc1)NC(=O)[C@H](CCCCN)NC(=O)[C@H](CC(C)C)NC(=O)[C@H](CCC(N)=O)NC(=O)[C@H](Cc1ccc(O)cc1)NC(=O)[C@H](CC(C)C)NC(=O)[C@H](CCC(=O)O)NC(=O)[C@H](CCC(N)=O)NC(=O)[C@H](Cc1c[nH]c2ccccc12)NC(=O)[C@H](NC(=O)[C@@H](CC(C)C)NC(=O)[C@@H](CCCCN)NC(C)=O)[C@H](C)O)C(N)=O [D-QK, Ac-^DLys-^DLeu-^DThr-Trp-Gln-Glu-Leu-Tyr-Gln-Leu-Lys-Tyr-Lys-Gly-Ile-NH2] (Ac-[dK][dL][dT]WQELYQLKYKGI-NH2)
